Source: patent US20240150341A1, “COMPOSITION FOR PREVENTING OR TREATING DISEASES CAUSED BY MITOCHONDRIAL DYSFUNCTION, CONTAINING ISOQUINOLINE DERIVATIVE COMPOUND AS ACTIVE INGREDIENT” (ALTMEDICALCO., LTD., priority 2021, published 2024)

What was measured:
[1] = tested on: PINK1 knockdown cells (shPINK1), BEAS-2B; test: Mitophagy activity in PINK1 knockdown (shPINK1) BEAS-2B cells (FACS); type: cell-based, human; conditions: CCCP 10 μM, CD1-012 15 μM, 18 hours, FIG. 7
Experimental: In order to analyze whether the activation of mitophagy by the CD1-012 synthesized in Example 1 is dependent on the PINK1-Parkin pathway, the PINK 1 was knockdown using short hairpin RNA (shRNA) in BEAS-2B cell lines. Then, CCCP (10 μM) from Comparative Example 1 and the CD1-012 (15 μM) were treated for 18 hours, and the mitophagy activity of each sample was analyzed using a flow cytometry (FACS) and represented in FIG. 7.

[2] = tested on: mitochondrial reactive oxygen species (ROS); test: Mitochondrial reactive oxygen species, MitoSOX assay; type: cell-based; conditions: CD1-012 10 μM or 15 μM, CCCP 10 μM, FIG. 6
Experimental: (§1) To determine if the CD1-012 synthesized in Example 1 induces mitochondrial dysfunction similar to CCCP of Comparative Example 1, the CD1-012 (10 μM or 15 μM) and the CCCP (10 μM) were treated for hours. Afterward, the mitochondrial membrane potential and the level of mitochondrial reactive oxygen species (ROS) of each sample were analyzed, and the results were represented in FIG. 6.
(§2) The mitochondrial membrane potential was analyzed using the TMRM (tetramethylrhodamine methyl ester) assay, and the mitochondrial ROS was analyzed using the MitoSOX assay.

[3] = tested on: mitochondrial membrane potential; test: Mitochondrial membrane potential, TMRM assay; type: cell-based; conditions: CD1-012 10 μM or 15 μM, CCCP 10 μM, FIG. 6
Experimental: as §1, §2

[4] = tested on: HeLa cervical cancer cell line (Hela-Parkin); test: Mitophagy activity in HeLa-Parkin cells (FACS); type: cell-based; conditions: FIG. 2B
Excerpt: (§3) To analyze the mitophagy-promoting activity effect of the isoquinoline derivative compound synthesized in the Example 1 (hereinafter, CD1-012), a quantification method for mitophagy activity, using a mt-Keima fluorescent protein, was utilized, which can measure the mitophagy activity in living cells through flow cytometry or a confocal microscope.
(§4) To determine whether CD1-012 synthesized in Example 1 enhances mitophagy activity in various cell lines, the human neuroblastoma cell line, SH-SY5Y, expressing mt-Keima fluorescent protein and HeLa cervical cancer cell line (Hela-Parkin) expressing Parkin (E3ligase) were treated with CD1-012 and CCCP of Comparative Example 1. Following this treatment, the mitophagy activity of each sample was analyzed using flow cytometry (FACS), and the results were represented in FIG. 2.
(§5) Specifically, FIG. 2A represents the analysis results for the SH-SY5Y cell line, and FIG. 2B represents the analysis results for the HeLa-Parkin cell line.

BEAS-2B cell line [5] = test: Autophagy activity in BEAS-2B cells expressing Keima fluorescent protein (confocal microscope); type: cell-based, human; conditions: CD1-012 15 μM; compared with HBSS starvation 3 hours; FIG. 4B
Experimental: (§6) To confirm whether the synthesized CD1-012 in Example 1 specifically increases mitophagy activity, the CD1-012 (15 μM) of the Example 1 and the CCCP (10 μM) of Comparative Example 1 were treated to the BEAS-2B cell line expressing mt-Keima for 18 hours. Subsequently, the mitophagy activity was analyzed using a confocal microscope, and the results were represented in FIG. 4A. Moreover, the BEAS-2B cell line expressing Keima fluorescent protein was cultured in HBSS (Hanks' balanced salts solution) for 3 hours to induce a nutrient-deficient state (starvation, starv.). The autophagy activity was measured by comparing the sample treated with the CD1-012 (15 μM) for hours using a confocal microscope, and the results were represented in FIG. 4B.

[6] = tested on: SH-SY5Y overexpressing APPswd/ind protein; test: ATP generation level in Alzheimer's disease cell model; type: cell-based, human; conditions: CD1-012 20 μM, measured 48 hours later, FIG. 8
Experimental: To verify whether the CD1-012 synthesized in Example 1 improves mitochondrial dysfunction in the Alzheimer's disease cell model, the human neuron cell line SH-SY5Y was overexpressed with APPswd/ind protein causing Alzheimer's disease to prepare the Alzheimer's disease cell model. After treating the cell model with the CD1-012 (20 μM) for hours, the ATP generation level, an indicator of mitochondrial function, was measured 48 hours later and the results were represented in FIG. 8.

BEAS-2B cell line [7] = test: Mitophagy activity with mt-Keima fluorescent protein in BEAS-2B cells (flow cytometry / confocal microscope); type: cell-based, human
Excerpt: as §3
To analyze the mitophagy-promoting activity effect of CD1-012 synthesized in Example 1, the BEAS-2B cell line, which is a human normal lung cell line, was induced to express the mt-Keima fluorescent protein. Following this, the CD1-012 (15 μM) and the compound of Comparative Example 1, CCCP (10 μM), were treated for 24 hours. After the treatment, the mitophagy activity of each sample was measured, and the results were represented in FIG. 1.
Specifically, FIG. 1A represents the analysis results using flow cytometry (FACS), FIG. 1B represents the analysis results using a confocal microscope, and FIG. 1C represents the measurement results of the quantitative changes in the mitochondria using a fluorescent protein, mito-YFP, which includes a targeting sequence to transport protein to the mitochondria.
To analyze whether CD1-012 synthesized in Example 1 promotes mitophagy activity in a concentration and time-dependent manner, the BEAS-2B cell line expressing mt-Keima was treated with varying concentrations of CD1-012 or a constant concentration (15 μM) for different durations. The mitophagy activity was then measured using flow cytometry, with the concentration-dependent mitophagy activity results represented in FIG. 3A and the time-dependent mitophagy activity results in FIG. 3B.
as §6
The mitophagy-promoting activity effect of each sample was compared, and the results were represented in FIG. 5.

APP/PS2 mice = test: Morris water maze test in Alzheimer's disease mouse model; type: in vivo; conditions: for memory capabilities, free-swimming analysis on the 7th day: intranasal, every day for 4 weeks, CD1-012 1 mg/Kg, palmatine 10 mg/Kg, FIG. 10
Experimental: Subsequently, to analyze the representative symptom improvement effect of Alzheimer's disease, spatial learning and memory abilities were measured through the Morris water maze test (represented in FIG. 10, 9-10 mice per group). During the behavior test, from day 1 to day 6, training was conducted, where the time taken from the start to climb the escape stand was measured 4 times. On the 7th day, free-swimming test was conducted for 60 seconds, and the time spent in the area where the escape stand was located during training was measured to analyze the learning and memory abilities of the experimental animals. The results were represented in […].
For the purpose of comparing the treatment effect of the CD1-012 synthesized in Example 1 with that of palmatine in Comparative Example 2 on an Alzheimer's disease animal model, APP/PS2 mice were intranasally administered with the CD1-012 at a concentration of 1 mg/Kg and palmatine at 10 mg/Kg every day for 4 weeks. The treatment effects on dementia were confirmed with a water maze test, and the results were represented in FIG. 10 (9-10 mice per group).

SH-SY5Y = test: Mitophagy activity in SH-SY5Y cells expressing mt-Keima (FACS); type: cell-based, human; conditions: FIG. 2A
Excerpt: as §3, §4, §5

[8] = BEAS-2B mt-Keima, flow cytometry, FIG. 3A
[9] = APP/PS2 mice, 1 mg/kg every day for 4 weeks, nasal administration, FIG. 9

N#CC(C#N)=NNc1cccc(Cl)c1 [CCCP, Carbonyl Cyanide 3-chlorophenylhydrazone, reference compound]
mitophagy activation in shPINK1 cells compared to the control cell line (shNT) [1]: significantly decreased
mitochondrial ROS [2]: significantly increased mitochondrial ROS
mitochondrial membrane potential [3]: significantly reduced the mitochondrial membrane potential

Oc1cc2c(cc1O)-c1cc3ccc(O)c(O)c3c[n+]1CC2 [CD1-012, 2,3,9,10-Tetrahydroxy-5,6-dihydroisoquinolino[3,2-a]isoquinolin-7-iumbromide]
mitophagy activation in shPINK1 cells compared to the control cell line (shNT) [1]: did not show any significant difference
mitochondrial ROS [2]: did not increase mitochondrial ROS
mitophagy activity compared to the control group [4]: significant increase in mitophagy activity
autophagy activity (BEAS-2B cell line [5]): did not increase autophagy activity
mitochondrial membrane potential [3]: did not observe a decrease in the mitochondrial membrane potential
ATP production level [6]: recover and increase
time from which a significant increase in mitophagy activity was observed (BEAS-2B cell line [7]; BEAS-2B mt-Keima, 15 μM, flow cytometry, FIG. 3B): 3 h
concentration exhibiting mitophagy activity similar to the maximum of the comparators (BEAS-2B cell line [7]; BEAS-2B mt-Keima, FIG. 5): 10 µM
concentration from which mitophagy activity began to significantly increase (BEAS-2B cell line [7]; [8]): 7.5 µM
concentration up to which mitophagy activity continued to increase concentration-dependently (BEAS-2B cell line [7]; [8]): 17.5 µM
mitophagy activity compared to the untreated control group (BEAS-2B cell line [7]; BEAS-2B mt-Keima, CD1-012 15 μM, 24 hours, FIG. 1): significant increase in mitophagy activity
mitophagy activity compared with CCCP-treated sample (BEAS-2B cell line [7]; flow cytometry (FIG. 1A), CD1-012 15 μM vs CCCP 10 μM, 24 hours): increased as significantly as that of the sample treated with the representative mitophagy promoting compound, CCCP
mitophagy-promoting activity effect, times better than berberine (BEAS-2B cell line [7]; from FIG. 5 concentrations): approximately 8 times
mitophagy-promoting activity effect, times better than palmitate (BEAS-2B cell line [7]; from FIG. 5 concentrations): about 40 times
concentration for similar dementia treatment effect, times lower than that of palmatine (APP/PS2 mice; 1 mg/Kg vs 10 mg/Kg palmatine): 10 times
learning effect (escape latency) during 6 days of training (APP/PS2 mice; [9]): learning effect from day 3 to day 6
time spent near the escape platform, free-swimming analysis on the 7th day (APP/PS2 mice; [9]): recovered close to that of normal mice
memory capabilities, free-swimming analysis on the 7th day (APP/PS2 mice; APP/PS2 mice): improved similarly
mitophagy activity compared to the control group (SH-SY5Y): significant increase in mitophagy activity

COc1ccc2cc3[n+](cc2c1OC)CCc1cc2c(cc1-3)OCO2 [berberine, Berberine, reference compound]
concentration at which maximum mitophagy activity was reached (BEAS-2B cell line [7]; BEAS-2B mt-Keima, FIG. 5): 80 µM

COc1cc2c(cc1OC)-c1cc3ccc(OC)c(OC)c3c[n+]1CC2 [palmatine, Palmatine, reference compound]
concentration at which maximum mitophagy activity was reached (BEAS-2B cell line [7]; BEAS-2B mt-Keima, FIG. 5): 400 µM
memory capabilities, free-swimming analysis on the 7th day (APP/PS2 mice; APP/PS2 mice): improved similarly
